One may read the IC50 as the midpoint of a concentration-inhibition curve. A higher IC50 goes with a need for much substance.

No end group written: not given here.

Assay in all cases: biochemical
One test deals with DRB5*0101 (Homo sapiens, UniProt P01903+Q30154). The conditions noted are these: Binding affinity DRB5 *0101.
Another test deals with DRB1*1302 (Homo sapiens, UniProt P01903+P01911, A100E/A169T/K41T/L162R/M171V/P40S/Q125H/Q178H/Q39Y/Q99D/R42S/S66N/T262R/V115G/W38E/Y61H). The format is binding.
Another test addresses DRB1*1501 (Homo sapiens, UniProt P01903+P01911). The format is binding.
A further test addresses DRB1*1101 (Homo sapiens, UniProt P01903+P01911, A100R/A169T/A87E/I96F/K41T/L162R/M171V/P40S/Q125H/Q178H/Q39Y/Q99D/R42S/S66Y/T262R/V115G/W38E). To be noted: Binding affinity DRB1 *1101.
A further test has as its target DRB4*0101 (Homo sapiens, UniProt P01903+P13762, G164S). It is filed as binding.
The next test concerns the target DRB1*1201 (Homo sapiens, UniProt P01903+P01911, A100R/A169T/D57E/D86V/F55L/H45Y/K41T/L162R/M171V/P40S/Q125H/Q178H/Q39Y/Q99D/R42G/S66L/T262R/V114A/V67L/W38E/Y59H/Y61H/Y89S). It is filed as binding.
The next test has as its target DRB1*0802 (Homo sapiens, UniProt P01903+P01911, A100R/A103L/A169T/F76Y/H45Y/I96F/K41T/L162R/M171V/P40S/Q125H/Q178H/Q39Y/Q99D/R218S/R42G/S66Y/V115G/W38E). The format is binding.
A further test deals with DRB1*0301 (Homo sapiens, UniProt P01903+P01911, A100K/A102G/A103R/A169T/F55Y/I96L/K41T/L162R/M171V/P40S/Q125H/Q178H/Q39Y/R42S/S66N/T106N/T262R/W38E/Y61H). The format is binding.
For another test, the target named is DRB1*0405 (Homo sapiens, UniProt P01903+P01911, A100R/A169T/D86S/F76Y/I96L/K127E/L162R/M171V/N62H/P40V/Q125Y/R42H/S133A/S149N/S66Y/V115G/V209L/W38E). The format is binding.
The target in a further test is DR1 (DRB1*0101) (Homo sapiens, UniProt P01903+P01911, A100R/D57E/F55L/F60I/F76Y/I96L/L162R/M171V/P40L/Q125E/R42F/V115G/Y59C). The format is binding.
A further test concerns the target DRB1*0901 (Homo sapiens, UniProt P01903+P01911, A100R/A103E/D57H/D86V/F55Y/F60I/F76Y/I96F/K127E/L162R/M171V/P40D/Q125H/Q99R/R33Q/R42F/S133A/S66N/T210M/V115G/W38K/Y107V/Y59G/Y89S). It is filed as binding.
Another test addresses DR7 (DRB1*0701) (Homo sapiens, UniProt P01903+P01911, A100R/A102G/A103Q/D57E/D86V/E43K/F76Y/K127E/L162R/M171V/P40G/Q125H/Q99D/R33Q/R42Y/R54Q/S133A/S66F/T210M/V115G/Y107V/Y59L/Y89S). The format is binding.
The target of another test is DR4w4 (DRB1*0401) (Homo sapiens, UniProt P01903+P01911, A100K/A169T/F76Y/I96L/K127E/L162R/M171V/N62H/P40V/Q125Y/R42H/S133A/S149N/S66Y/V115G/V209L/W38E). It is filed as binding.

Chain of DRB1*0301 (P01903 26-254 limits assumed, other chains not shown): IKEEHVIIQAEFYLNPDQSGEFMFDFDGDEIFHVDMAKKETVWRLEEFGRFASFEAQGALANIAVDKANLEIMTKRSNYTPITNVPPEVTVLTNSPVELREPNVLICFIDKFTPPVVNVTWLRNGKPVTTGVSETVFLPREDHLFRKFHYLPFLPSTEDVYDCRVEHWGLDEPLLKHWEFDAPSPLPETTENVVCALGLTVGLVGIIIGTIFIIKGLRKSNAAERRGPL
Chain of DRB1*1302 (P01903 26-254 limits assumed, other chains not shown): as above
Chain of DRB1*1101 (P01903 26-254 limits assumed, other chains not shown): as above

AFQVIELQMALETLN [Peptide 90.0024]: the IC50 on DRB5*0101 is over 20000 nM; against DRB1*1302, 89 nM; against DRB1*1501, 378 nM; on DRB1*1101, 3340 nM; against DRB4*0101, 11 nM; against DRB1*1201, 466 nM. The 50% inhibitory concentration (IC50) on DRB1*0802 came to 4950 nM; at DRB1*0301, 1280 nM; on DRB1*0405, 2100 nM; against DR1 (DRB1*0101) it was 29 nM.

For the sequence AKALQAIELQMMLET [Peptide 89.0171], the IC50 stood at 284 nM on DRB5*0101; 8480 nM on DRB1*1501; 2400 nM on DRB1*1101; 2550 nM at DRB4*0101; 243 nM at DRB1*1201; 84 nM at DRB1*0901. Besides, the IC50 on DR7 (DRB1*0701) is 51 nM; on DRB1*0802, over 20000 nM; on DRB1*0301 it was 1460 nM; on DR4w4 (DRB1*0401) it was 78 nM; at DRB1*0405, 798 nM; on DR1 (DRB1*0101) it was 16 nM.

For the sequence ETCMLIEPPKLRSSV [Peptide 89.0084], the IC50 against DRB1*1302 was 481 nM; at DRB1*1101, 123 nM; at DRB4*0101, 48 nM; against DRB1*1201, 708 nM; against DRB1*0901 it was 5120 nM; on DR7 (DRB1*0701) it was 756 nM. Further, the IC50 came out at 1350 nM at DRB1*0802, 359 nM against DRB1*0301, 906 nM on DRB1*0405 and 35 nM at DR1 (DRB1*0101).

In the case of GERLEVDTELSPRLQ [Peptide 90.0048], the IC50 at DRB5*0101, at DRB1*1302, on DRB1*1501, at DRB1*1101, on DRB4*0101 and against DRB1*1201 was over 20000 nM each time. The IC50 was over 20000 nM at DRB1*0901; over 20000 nM against DR7 (DRB1*0701); over 20000 nM against DRB1*0802; 15 nM at DRB1*0301; over 20000 nM against DRB1*0405; over 20000 nM at DR1 (DRB1*0101).

With GKSYFGMSLIQFLKG [Peptide 89.0075], the IC50 turned out to be 411 nM on DRB5*0101; 2960 nM at DRB1*1101; 372 nM on DRB4*0101; 499 nM against DRB1*1201; 73 nM against DRB1*0901; 1560 nM at DRB1*0802. The IC50 on DRB1*0301 is 8830 nM; against DR4w4 (DRB1*0401), 456 nM; at DRB1*0405, 1310 nM; against DR1 (DRB1*0101) it was 14 nM.

As for HKAIELQMALKGLAQ [Peptide 90.0004], the IC50 was 57 nM at DRB5*0101; 6580 nM on DRB1*1501; 10 nM at DRB1*1101; 1 nM against DRB4*0101; 293 nM at DRB1*1201; 38 nM against DRB1*0802. Further, the IC50 against DRB1*0301 is 32 nM; against DR4w4 (DRB1*0401), 6.7 nM; against DRB1*0405, 3310 nM; on DR1 (DRB1*0101), 2.1 nM.

Regarding LKAICIEKQSRAAKR [Peptide 90.0032], the IC50 on DRB1*1501 turned out to be 2060 nM; at DRB1*1101 it was 545 nM; at DRB4*0101, 29 nM; against DRB1*1201 it was 11800 nM; against DRB1*0901 it was 13400 nM; on DRB1*0802, 273 nM. For the same sequence, the half-maximal inhibitory concentration (IC50) was 21 nM at DRB1*0301, 307 nM on DR4w4 (DRB1*0401), over 20000 nM against DRB1*0405 and 259 nM at DR1 (DRB1*0101).

On to LLEFIDDSMENSIQA [Peptide 90.0077], for which the IC50 is over 20000 nM at DRB5*0101; over 20000 nM against DRB1*1302; 6120 nM on DRB1*1501; 7620 nM at DRB1*1101; 734 nM against DRB4*0101; over 20000 nM against DRB1*1201. The IC50 at DRB1*0901 was 6680 nM; against DR7 (DRB1*0701) it was over 20000 nM; against DRB1*0802, over 20000 nM; against DRB1*0301, 518 nM; against DRB1*0405 it was 534 nM; at DR1 (DRB1*0101), 500 nM.

LNTVKIPNTVSVSTG [Peptide 89.0178]: the IC50 turned out to be 12700 nM against DRB1*1501; 976 nM at DRB1*1101; 2580 nM at DRB4*0101; 361 nM on DRB1*1201; 1140 nM at DRB1*0901; 5480 nM against DR7 (DRB1*0701). The IC50 against DRB1*0802 came to 3690 nM; at DRB1*0301, 65 nM; against DR4w4 (DRB1*0401) it was 824 nM; on DRB1*0405, 3020 nM; against DR1 (DRB1*0101), 51 nM.

As for PEWIQRLTIIQHGID [Peptide 89.0031], the half-maximal inhibitory concentration (IC50) at DRB5*0101 turned out to be 240 nM; on DRB1*1302 it was 558 nM; against DRB1*1501, 3420 nM; on DRB1*1101, 596 nM; at DRB4*0101 it was 3.3 nM; at DRB1*1201, 527 nM. The IC50 was 4510 nM against DRB1*0901; 187 nM against DRB1*0802; 4380 nM against DRB1*0301; 131 nM on DRB1*0405; 879 nM against DR1 (DRB1*0101).

As to QMFLGTVKIPPTVQI [Peptide 89.0188], the IC50 was 4490 nM at DRB5*0101; 208 nM against DRB1*1501; 474 nM at DRB1*1101; 13 nM on DRB4*0101; 553 nM against DRB1*1201; over 20000 nM against DRB1*0901. The IC50 worked out at 4650 nM at DR7 (DRB1*0701), 503 nM on DRB1*0802, 160 nM against DRB1*0301 and 616 nM at DRB1*0405.

As to TGWFEVEAVIERRTG [Peptide 90.0075], the IC50 on DRB5*0101 is 362 nM; on DRB1*1302, over 20000 nM; against DRB1*1501, over 20000 nM; at DRB4*0101 it was over 20000 nM; at DRB1*1201 it was over 20000 nM; against DRB1*0901, over 20000 nM. Moreover, the IC50 on DR7 (DRB1*0701) is 4930 nM; on DRB1*0301, 17 nM; on DRB1*0405, 6110 nM; at DR1 (DRB1*0101), 17100 nM.

For VDFIVNDNDYLTQAE [Peptide 90.0031], the IC50 at DRB5*0101 was over 20000 nM; at DRB1*1302, 204 nM; against DRB1*1501, over 20000 nM; at DRB1*1101 it was over 20000 nM; against DRB4*0101 it was 718 nM; against DRB1*1201, 17100 nM. In addition, the IC50 at DRB1*0901 is over 20000 nM; on DR7 (DRB1*0701), 7280 nM; against DRB1*0802, over 20000 nM; against DRB1*0301, 42 nM; on DRB1*0405, over 20000 nM; against DR1 (DRB1*0101) it was 2830 nM.

In the case of VTVFTFPHAFPFDKN [Peptide 89.0092], the IC50 is 226 nM on DRB5*0101; over 20000 nM at DRB1*1302; 63 nM on DRB1*1501; 1500 nM against DRB4*0101; 131 nM against DRB1*1201; 33 nM on DRB1*0901. Besides, the IC50 was 5.5 nM against DR7 (DRB1*0701), over 20000 nM on DRB1*0301 and 10200 nM at DRB1*0405.

WKLIRMECAIMYTAR [Peptide 90.0245]: the IC50 at DRB5*0101 is 1240 nM; against DRB1*1501, 2110 nM; on DRB4*0101, 27 nM; at DRB1*1201, 195 nM; on DRB1*0901 it was 4870 nM; on DR7 (DRB1*0701) it was 4610 nM. The IC50 against DRB1*0802 was determined as 9170 nM; against DRB1*0301, 203 nM; at DR4w4 (DRB1*0401), 328 nM; against DRB1*0405, 768 nM.

Turning to WQLIRLENAILFTAR [Peptide 90.0211], the IC50 on DRB5*0101 is 445 nM; at DRB1*1302 it was 2.7 nM; on DRB1*1501, 44 nM; at DRB4*0101, 20 nM; against DRB1*1201, 99 nM; against DRB1*0901, 2270 nM. For the same sequence, the IC50 against DR7 (DRB1*0701) was determined as 89 nM; on DRB1*0802 it was 1840 nM; on DRB1*0301, 41 nM; against DRB1*0405, 308 nM; against DR1 (DRB1*0101), 4.1 nM.

The record behind these values is patent US9340577B2, “HLA binding motifs and peptides and their uses” (priority 1992, dated 2016).
